Results published in ChEMBL document CHEMBL1201862, “PubChem BioAssay data set” (2004).
Calls of active or inactive are those of the source. Rule as the data show it, for most assays here: actives have a measured EC50 and inactives only a lower limit.

Key:
[1] = biological target: Luciferin 4-monooxygenase (Photinus pyralis, UniProt P08659); assay: inhibition of purified Photinus pyralis luciferase – biochemical, luminescence, dose response (AID 1891)
[2] = Luminescence Cell-Based Dose Confirmation HTS to Identify Inhibitors of Platelet Dense Granule Release. [Related pubchem assays: 1663 (Primary HTS), 1678 (Summary of Project)]; type: functional
[3] = fluconazole-exposed Candida albicans growth modulators – fluorescence, retest, confirmation (AID 2467); type: functional, cell-based
[4] = NIH-3T3 fibroblast cytotoxicity, dose response, cytotoxicity control, cell-based, fluorescence, Alamar Blue, secondary assay (AID 2327); type: functional;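 also: NIH-3T3 mouse fibroblasts cultured with fluconazole at 8 µg/mL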
[5] = Luminescence Cell-Based Dose Response HTS to Identify Inhibitors of 5'UTR Stem-Loop Driven Prion Protein mRNA Translation in H4 Neuroglioblastoma Cells. [Related pubchem assays: 1827 (Project Summary), 1813 (Primary HTS)]; type: functional
[6] = luciferase reporter signal suppression in cells – H4 neuroglioma cells, luminescence, dose response (AID 1990); type: functional, cell-based
[7] = alpha-synuclein stem-loop luciferase translation blockers – H4 neuroglioma cells, luminescence, confirmation (AID 1988); type: functional, cell-based
[8] = biological target: T1, Corticotropin-releasing factor receptor 2/Corticotropin-releasing factor-binding protein (Homo sapiens, UniProt P24387+Q13324); assay: activators of CRF receptor 2 with binding protein – uHTS hits, confirmation (AID 602473); type: functional; conditions: read-out: EC50_Mean
T1 sequence (Q13324 whole entry): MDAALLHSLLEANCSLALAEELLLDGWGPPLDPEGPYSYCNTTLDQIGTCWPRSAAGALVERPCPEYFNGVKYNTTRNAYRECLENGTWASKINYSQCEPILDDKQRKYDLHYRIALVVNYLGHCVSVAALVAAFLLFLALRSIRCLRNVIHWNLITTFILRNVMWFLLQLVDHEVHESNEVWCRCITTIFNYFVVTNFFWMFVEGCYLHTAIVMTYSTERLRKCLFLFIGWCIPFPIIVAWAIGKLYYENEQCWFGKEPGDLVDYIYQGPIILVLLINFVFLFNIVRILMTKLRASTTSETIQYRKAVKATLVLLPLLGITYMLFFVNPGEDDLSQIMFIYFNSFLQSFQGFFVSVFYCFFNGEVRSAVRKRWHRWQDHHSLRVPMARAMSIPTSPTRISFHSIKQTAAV
T1 sequence (P24387 whole entry): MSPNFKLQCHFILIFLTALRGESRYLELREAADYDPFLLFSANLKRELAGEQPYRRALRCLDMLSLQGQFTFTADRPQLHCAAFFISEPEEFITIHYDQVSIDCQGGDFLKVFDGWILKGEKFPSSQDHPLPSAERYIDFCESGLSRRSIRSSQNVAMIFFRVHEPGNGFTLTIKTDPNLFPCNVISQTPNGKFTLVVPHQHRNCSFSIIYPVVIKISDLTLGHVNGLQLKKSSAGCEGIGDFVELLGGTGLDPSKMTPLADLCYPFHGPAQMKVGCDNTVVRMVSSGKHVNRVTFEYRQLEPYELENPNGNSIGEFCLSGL

[9] = biological target: T1, Corticotropin-releasing factor receptor 2/Corticotropin-releasing factor-binding protein; assay: Dose Response confirmation of uHTS hits for small molecule antagonists of the CRF-binding protein and CRF-R2 receptor complex.; type: functional; conditions: read-out: IC50_Mean
[10] = NIH3T3 cell viability loss – ATP luminescence, mouse fibroblasts, counter-screen, dose response (AID 2010); type: functional, cell-based;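 also: cells exposed to compound for about 90 hours before reading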
[11] = Trypanosoma cruzi growth suppression in host cells – NIH3T3 host cells, beta-gal luminescence, confirmation (AID 2044); type: functional, cell-based;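 also: intracellular parasites grown in NIH/3T3 mouse fibroblasts as host cells; luminescent beta-galactosidase reporter signal from transgenic T. cruzi replicating inside host cells; inhibitors lower the luminescence signal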
[12] = Luminescence Cell-Based Dose Retest to Confirm Inhibitors of Cancer Stem Cells. [Related pubchem assays (depositor defined):AID2717, AID2721]; type: functional; conditions: Homo sapiens
[13] = biological target: T2, Ubiquitin-conjugating enzyme E2 N (Homo sapiens, UniProt P61088); type: functional;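 also: Dose-response confirmation in a TR-FRET assay detecting UBC13-driven polyubiquitin chain formation, inhibition measured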
T2 sequence (P61088 whole entry): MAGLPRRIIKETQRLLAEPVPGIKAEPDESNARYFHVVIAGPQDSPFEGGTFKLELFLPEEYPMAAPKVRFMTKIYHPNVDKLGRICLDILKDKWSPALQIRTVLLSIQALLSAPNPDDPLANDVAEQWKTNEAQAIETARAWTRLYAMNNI

Cytochrome P450 2D6 = Cytochrome P450 2D6 (Homo sapiens, UniProt P10635);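 also: CYP2D6 member of a cytochrome P450 panel assay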
Chain of Cytochrome P450 2D6 (P10635 whole entry): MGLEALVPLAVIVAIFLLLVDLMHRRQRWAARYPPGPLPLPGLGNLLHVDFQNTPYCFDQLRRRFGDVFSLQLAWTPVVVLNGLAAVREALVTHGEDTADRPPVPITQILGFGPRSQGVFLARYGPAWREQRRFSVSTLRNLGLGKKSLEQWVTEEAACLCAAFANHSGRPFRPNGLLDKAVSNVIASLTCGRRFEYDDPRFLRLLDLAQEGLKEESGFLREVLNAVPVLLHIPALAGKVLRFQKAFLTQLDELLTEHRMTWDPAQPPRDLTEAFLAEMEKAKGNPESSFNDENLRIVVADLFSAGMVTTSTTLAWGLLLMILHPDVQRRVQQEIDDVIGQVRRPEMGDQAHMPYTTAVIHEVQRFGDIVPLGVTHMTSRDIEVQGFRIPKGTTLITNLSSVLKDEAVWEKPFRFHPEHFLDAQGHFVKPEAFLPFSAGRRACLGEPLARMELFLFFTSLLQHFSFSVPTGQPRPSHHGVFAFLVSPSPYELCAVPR

Cytochrome P450 1A2 = biological target: T3, Cytochrome P450 1A2 (Homo sapiens, UniProt P05177);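 also: PubChem cytochrome P450 panel assay, CYP1A2 panel member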
T3 sequence (P05177 whole entry): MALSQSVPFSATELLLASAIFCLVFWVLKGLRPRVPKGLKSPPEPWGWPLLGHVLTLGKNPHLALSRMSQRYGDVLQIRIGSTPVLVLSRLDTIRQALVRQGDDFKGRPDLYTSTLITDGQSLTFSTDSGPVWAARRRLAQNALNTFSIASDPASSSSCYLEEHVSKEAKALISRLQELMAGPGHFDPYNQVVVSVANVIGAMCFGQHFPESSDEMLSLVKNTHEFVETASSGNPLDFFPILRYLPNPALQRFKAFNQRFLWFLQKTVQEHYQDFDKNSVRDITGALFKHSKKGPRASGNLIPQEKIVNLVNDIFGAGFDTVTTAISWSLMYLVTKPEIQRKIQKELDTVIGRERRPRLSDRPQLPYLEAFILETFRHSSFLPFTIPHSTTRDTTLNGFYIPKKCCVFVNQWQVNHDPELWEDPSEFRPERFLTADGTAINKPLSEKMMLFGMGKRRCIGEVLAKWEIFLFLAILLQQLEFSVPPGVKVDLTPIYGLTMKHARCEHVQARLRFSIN

Chain of Luciferin 4-monooxygenase (P08659 whole entry): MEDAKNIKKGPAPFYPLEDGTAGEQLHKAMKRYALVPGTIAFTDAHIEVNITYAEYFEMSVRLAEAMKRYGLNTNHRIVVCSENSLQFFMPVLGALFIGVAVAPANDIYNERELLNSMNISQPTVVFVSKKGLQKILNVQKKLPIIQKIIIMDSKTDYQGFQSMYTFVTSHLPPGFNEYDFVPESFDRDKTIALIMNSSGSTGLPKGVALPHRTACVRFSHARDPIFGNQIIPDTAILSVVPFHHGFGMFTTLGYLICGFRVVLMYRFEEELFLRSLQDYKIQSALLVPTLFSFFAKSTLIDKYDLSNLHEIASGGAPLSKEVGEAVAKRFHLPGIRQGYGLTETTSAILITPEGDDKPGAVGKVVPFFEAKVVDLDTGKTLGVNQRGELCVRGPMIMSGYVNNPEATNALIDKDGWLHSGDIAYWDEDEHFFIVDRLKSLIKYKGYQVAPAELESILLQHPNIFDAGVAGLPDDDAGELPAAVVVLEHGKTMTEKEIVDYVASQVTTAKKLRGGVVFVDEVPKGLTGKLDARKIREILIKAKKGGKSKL

Cc1ccc(CNC(=O)C2CCCN(c3nn4c(=O)cc(C)nc4s3)C2)cc1 (centres undefined)
EC50 [1]: > 112 µM (not active) | EC50 [2]: > 112 µM (not active)

CC(c1ccccc1)N1CCn2c(nc3cc(NS(C)(=O)=O)ccc32)C1 (centres undefined)
EC50 [3]: > 38 µM (not active) | EC50 [4]: > 160 µM (inconclusive)

CCOC(=O)C1CCCN(C(=O)CCNC(=O)Cn2ccc3ccccc3c2=O)C1 (centres undefined)
EC50 [5]: 104 µM (active) | EC50 [6]: > 120 µM (not active) | EC50 [7]: > 120 µM (not active)

COc1ccc(-c2cc(C)no2)cc1S(=O)(=O)N(C)c1cccc(C)c1
EC50 [3]: > 38 µM (not active) | EC50 [4]: > 160 µM (inactive)

COc1cccc(NC(=S)C(C#N)=C2N(C)c3ccccc3N2C)c1
EC50 [8]: > 53 µM (inactive) | IC50 [9]: > 47.1 µM (inactive)

CC(C)(C)n1nc(-c2ccc(F)cc2)c2c(N)ncnc21
EC50 [6]: 8.68 µM (active) | EC50 [10]: 7.86 µM (active) | EC50 [7]: 20 µM (active) | EC50 [11]: 0.316 µM (active)

CN(C)c1ccc(/C=C(\Cl)c2nc3ccccc3s2)cc1
AC50 [12]: 1.58 µM (active)

COc1ccc(-c2oc(=O)c3cc(OC)c(OC)cc3c2C#CC2(O)CCCCC2)cc1
IC50 [13]: > 20 µM (inactive)

O=[N+]([O-])c1ccc(Cl)c(/C=N/n2c(S)nnc2C2CCCCC2)c1
AC50 [12]: 36.1 µM (active)

O=C(CSc1nc[nH]n1)Nc1cc(S(=O)(=O)N2CCCC2)ccc1Cl
EC50 [8]: > 53 µM (inactive) | IC50 [9]: > 47.1 µM (inactive)

CCn1c(SCC(=O)NC2CC2)nnc1-c1ccncc1
EC50 [8]: > 53 µM (inactive) | IC50 [9]: > 47.1 µM (inactive)

O=C(Nc1cccc(O)c1)C(=O)Nc1ccccn1
EC50 [1]: 7.77 µM (active) | EC50 [2]: 1.82 µM (active)

O=Nc1c(O)n(Cc2ccc(Cl)c(Cl)c2)c2ccccc12
AC50 (Cytochrome P450 2D6): 28.2 µM (inconclusive) | AC50 [12]: 5.78 µM (active) | EC50 [3]: 3.73 µM (active) | EC50 [4]: 76.8 µM (active) | AC50 (Cytochrome P450 1A2): 20 µM (inconclusive)

CC(NCC(=O)Nc1ccccc1C(=O)NC1CC1)c1cccc(Cl)c1 (centres undefined)
EC50 [8]: > 53 µM (inactive) | IC50 [9]: > 47.1 µM (inactive)

COc1ccc(-c2cc(C(=O)N3CC4(C)CC3CC(C)(C)C4)no2)cc1OC (centres undefined)
AC50 [12]: 1.75 µM (active)

COc1ccccc1NC(=O)Cc1c(F)cccc1Cl
EC50 [1]: > 112 µM (not active) | EC50 [2]: 70.8 µM (active)

N#CCC(=O)N/N=C/c1cn(Cc2cccc3ccccc23)c2ccccc12
EC50 [5]: > 120 µM (not active) | EC50 [6]: 14.9 µM (active) | EC50 [7]: 8.59 µM (active)

Cc1c(NC2=C(Cl)C(=O)N(c3ccccc3Cl)C2=O)c(=O)n(-c2ccccc2)n1C
EC50 [8]: > 53 µM (inactive) | IC50 [9]: > 47.1 µM (inactive)

O=C(NNc1ccc(Cl)cc1)c1cccs1
AC50 [12]: 1.14 µM (active) | EC50 [3]: > 38 µM (not active) | EC50 [4]: 2.56 µM (inconclusive)

Cc1cc(O)c(/C=N/Nc2ccc(F)cc2)c(=O)o1
EC50 [4]: 9.97 µM (active)

CCCn1c(SCC#N)nc2c(c1=O)C1(CCCC1)Cc1ccccc1-2
AC50 [12]: 1.92 µM (active)

COc1cccc(CN(C)C(=O)c2cccc(S(=O)(=O)N3CCN(c4ccccc4)CC3)c2)c1OC
EC50 [8]: > 53 µM (inactive) | IC50 [9]: > 47.1 µM (inactive)

Cc1nc(N)sc1C(=O)NN
IC50 [13]: > 20 µM (inactive)

CCCn1cc(S(=O)(=O)c2ccccc2)c(=O)c2cc(OCC)ccc21
EC50 [8]: > 53 µM (inactive) | IC50 [9]: > 47.1 µM (inactive)

Cc1cccc(C(=O)Nc2ccc(C(=O)Nc3ccc(O)cc3)cc2)c1
AC50 [12]: 2.09 µM (active)

O=C(CN1CCN(c2ccccc2F)CC1)Nc1nnc(C(F)(F)F)s1
EC50 [3]: 0.366 µM (active) | EC50 [4]: > 150 µM (inactive)

O=C(c1ccco1)N1CCN(C(=O)c2ccc(COc3ccc(F)cc3)o2)CC1
EC50 [1]: > 112 µM (not active) | EC50 [2]: > 112 µM (not active)

COc1ccc(Br)cc1/C=N/n1c(C)nnc1C
EC50 [1]: > 112 µM (not active) | EC50 [2]: > 112 µM (not active)

Cc1ccccc1-n1c(CSC(=N)N)nc2ccccc2c1=O
EC50 [8]: > 53 µM (inactive) | IC50 [9]: > 47.1 µM (inactive)

CCNc1nc(Oc2ccc(C#N)cc2)cc(C(F)(F)F)n1
EC50 [5]: 16.8 µM (active) | EC50 [6]: 5.99 µM (active) | EC50 [7]: 11.7 µM (active)

CSc1ccccc1C(=O)Nc1ncc(C)s1
EC50 [1]: > 112 µM (not active) | EC50 [2]: 65.8 µM (active)

Cc1ccc(N2CCN(C(=O)CN3C(=O)c4ccccc4C3=O)CC2)cc1
EC50 [8]: > 53 µM (inactive) | IC50 [9]: > 47.1 µM (inactive)

Clc1nc2ncnc-2c[nH]1
EC50 [1]: > 112 µM (not active) | EC50 [2]: > 112 µM (not active)

CCCn1c(=O)c(C(=O)NNS(=O)(=O)c2ccc(Cl)cc2)c(O)c2ccccc21
AC50 [12]: 1.57 µM (active)

COC(=O)COc1ccc(S(=O)(=O)NCc2cccnc2)cc1C
EC50 [1]: > 112 µM (not active) | EC50 [2]: 34.3 µM (active)

O=C(CCn1nnc2ccccc21)N1CCN(c2ccccc2)CC1
EC50 [8]: > 53 µM (inactive) | IC50 [9]: > 47.1 µM (inactive)

CCOC(=O)C1CCN(C(=O)Cn2nc(C)n3c(cc4cc(F)ccc43)c2=O)CC1
EC50 [1]: > 112 µM (not active) | EC50 [2]: 15.8 µM (active)

CCCCc1ccc(/C=C(\C#N)C(N)=S)s1
IC50 [13]: > 20 µM (inactive)

COc1cccc(-c2nc3ccc(O)cc3c(=O)o2)c1
EC50 [1]: 5.39 µM (active) | EC50 [2]: 9.19 µM (active)

O=C(Nc1ccc(Cl)c(S(=O)(=O)N2CCOCC2)c1)c1ccccc1-c1ccc(C(F)(F)F)cc1
EC50 [5]: > 120 µM (not active) | EC50 [6]: 14.5 µM (active) | EC50 [7]: > 120 µM (not active)

COc1ccc(/C=N/OCC(=O)N2CC3(C)CC2CC(C)(C)C3)cc1 (centres undefined)
AC50 [12]: 11.5 µM (active)

O=C(CC1(O)C(=O)Nc2ccccc21)c1ccccc1 (centres undefined)
EC50 [1]: > 112 µM (not active) | EC50 [2]: > 112 µM (not active)

COc1ccc(Cc2nnc(Nc3ccc(C)cc3)o2)cc1OC
EC50 [5]: > 120 µM (not active) | EC50 [6]: > 120 µM (not active) | EC50 [7]: 11.5 µM (active)

CCCCCCc1nnc(N)s1
EC50 [5]: > 120 µM (not active) | EC50 [6]: > 120 µM (not active) | EC50 [7]: > 120 µM (not active)
